Laboratory results from patent US10111874B2, “Combination therapies for treatment of cancer” (Araxes Pharma LLC, priority 2014, dated 2018).

target: T1, KRAS G12C 1-169, his-tagged protein, GDP-loaded (Homo sapiens, UniProt P01116, G12C); test: Biochemical assay: covalent binding to KRAS G12C analyzed by mass spectrometry; conditions: compounds 1-47, measured at 24 h; note: test concentration or dose not given here
T1 construct: KRAS G12C 1-169, his-tagged protein, GDP-loaded
T1 sequence (P01116 1-169 isoform P01116-2 G12C): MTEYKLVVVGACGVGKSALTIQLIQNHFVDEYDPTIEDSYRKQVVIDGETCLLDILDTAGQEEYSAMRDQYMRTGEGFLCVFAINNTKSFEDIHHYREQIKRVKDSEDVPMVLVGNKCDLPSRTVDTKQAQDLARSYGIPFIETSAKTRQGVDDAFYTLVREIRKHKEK

SMILES	Binding %
CN(C)C/C=C/C(=O)N1CCN(c2ncnc3cc(Cl)c(-c4ccccc4Cl)cc23)CC1 [Compound I-25, (E)-1-(4-(7-chloro-6-(2-chlorophenyl)quinazolin-4-yl)piperazin-1-yl)-4-(dimethylamino)but-2-en-1-one]	++ (++indicates binding activity greater than 25% and up to 50%)
C=CC(=O)N1CCN(c2ncnc3cc(C4CC4)c(-c4ccc(C5CC5)cc4)cc23)CC1 [Compound I-41, 1-(4-(7-cyclopropyl-6-(4-cyclopropylphenyl)quinazolin-4-yl)piperazin-1-yl)prop-2-en-1-one]	+ (+indicates binding activity from 5% to 25%)
C=CC(=O)N1CCC(Nc2ncnc3cc(Cl)c(-c4ccccc4Cl)cc23)CC1 [Compound I-2, 1-(4-(7-chloro-6-(2-chlorophenyl)quinazolin-4-ylamino)piperidin-1-yl)prop-2-en-1-one]	+ (+indicates binding activity from 5% to 25%)
C=CS(=O)(=O)N1CCN(c2ncnc3cc(Cl)c(-c4ccc(Cl)cc4)cc23)CC1 [Compound I-45, 7-chloro-6-(4-chlorophenyl)-4-(4-(vinylsulfonyl)piperazin-1-yl)quinazoline]	+ (+indicates binding activity from 5% to 25%)
C=CC(=O)N1CCN(c2ncnc3cc(Cl)c(-c4ccc(Cl)cc4Cl)cc23)CC1 [Compound I-6, 1-(4-(7-chloro-6-(2,4-dichlorophenyl)quinazolin-4-yl)piperazin-1-yl)prop-2-en-1-one]	+++ (+++indicates binding activity greater than 50% and up to 75%)

same assay, conditions: compounds 48-246, measured at 2 h

SMILES	Binding %
C=CC(=O)N1CCN(c2ncnc3cc(-c4ccccc4)c(Cl)cc23)CC1CC#N (stereo not shown) [Compound I-85, 2-(1-acryloyl-4-(6-chloro-7-phenylquinazolin-4-yl)piperazin-2-yl)acetonitrile]	+++ (+++indicates binding activity greater than 50% and up to 75%)
C=CC(=O)N1CCN(c2ncnc3cc(-c4ccccc4C(F)(F)F)c(C(F)(F)F)cc23)CC1 [Compound I-212, 1-(4-(6-(trifluoromethyl)-7-(2-(trifluoromethyl)phenyl)quinazolin-4-yl)piperazin-1-yl)prop-2-en-1-one]	++++ (++++indicates binding activity greater than 75%)
C=CC(=O)N1CCN(c2ncnc3cc(-c4cccc5cncnc45)c(Cl)cc23)CC1 [Compound I-180, 1-(4-(6-chloro-7,8′-biquinazolin-4-yl)piperazin-1-yl)prop-2-en-1-one]	+ (+indicates binding activity from 5% to 25%)
C=CC(=O)N1CCN(c2ncnc3cc(-c4cc(F)ccc4F)c(Cl)cc23)CC1 [Compound I-113, 1-(4-(6-chloro-7-(2,5-difluorophenyl)quinazolin-4-yl)piperazin-1-yl)prop-2-en-1-one]	+++ (+++indicates binding activity greater than 50% and up to 75%)
C=CC(=O)N1CCN(c2ncnc3cc(-c4ccccc4F)c(C#N)cc23)CC1 [Compound I-137, 4-(4-acryloylpiperazin-1-yl)-7-(2-fluorophenyl)quinazoline-6-carbonitrile]	+ (+indicates binding activity from 5% to 25%)
C=CC(=O)N1CCN(c2ncnc3cc(Cl)c(-c4ccc(Cl)cc4)cc23)C[C@@H]1CO [Compound I-65, (R)-1-(4-(7-chloro-6-(4-chlorophenyl)quinazolin-4-yl)-2-(hydroxymethyl)piperazin-1-yl)prop-2-en-1-one]	+ (+indicates binding activity from 5% to 25%)
C=CC(=O)N1CCN(c2ncnc3cc(Cl)ccc23)CC1C#N (stereo not shown) [Compound I-48, 1-acryloyl-4-(7-chloroquinazolin-4-yl)piperazine-2-carbonitrile]	++++ (++++indicates binding activity greater than 75%)
CN(C)C/C=C/C(=O)N1CCN(c2ncnc3c(F)c(-c4ccccc4F)c(Cl)cc23)CC1 [Compound I-229, (E)-1-(4-(6-chloro-8-fluoro-7-(2-fluorophenyl)quinazolin-4-yl)piperazin-1-yl)-4-(dimethylamino)but-2-en-1-one]	++ (++indicates binding activity greater than 25% and up to 50%)
C=CC(=O)N1CCN(c2ncnc3cc(-c4ccccc4CC)c(Cl)cc23)CC1CC#N (stereo not shown) [Compound I-107, 2-(1-acryloyl-4-(6-chloro-7-(2-ethylphenyl)quinazolin-4-yl)piperazin-2-yl)acetonitrile]	++++ (++++indicates binding activity greater than 75%)

same assay, conditions: compounds 247-342, measured at 30 min

SMILES	Binding %
C=CC(=O)N1CCN(c2c(C#N)cnc3c(F)c(-c4c(O)ccc5ccccc45)c(Cl)cc23)CC1 [Compound I-269, 4-(4-acryloylpiperazin-1-yl)-6-chloro-8-fluoro-7-(2-hydroxynaphthalen-1-yl)quinoline-3-carbonitrile]	+++ (+++indicates binding activity greater than 50% and up to 75%)
C=CC(=O)N1CCN(c2ncnc3c(F)c(-c4c(C)ccc5[nH]ncc45)c(F)cc23)CC1 [Compound 297, 1-(4-(6,8-difluoro-7-(5-methyl-1H-indazol-4-yl)quinazolin-4-yl)piperazin-1-yl)prop-2-en-1-one]	+ (+indicates binding activity from 5% to 25%)
C=CC(=O)N1CCN(c2nc(-c3cn[nH]c3)nc3c(F)c(-c4c(C)ccc5[nH]ncc45)c(Cl)cc23)CC1 [Compound 304, 1-(4-(6-chloro-8-fluoro-7-(5-methyl-1H-indazol-4-yl)-2-(1H-pyrazol-4-yl)quinazolin-4-yl)piperazin-1-yl)prop-2-en-1-one]	++ (++indicates binding activity greater than 25% and up to 50%)
CC(C)(/C=C(\C#N)C(=O)N1CCN(c2ncnc3cc(-c4ccccc4F)c(Cl)cc23)CC1)CO [Compound I-261, (E)-2-(4-(6-chloro-7-(2-fluorophenyl)quinazolin-4-yl)piperazine-1-carbonyl)-5-hydroxy-4,4-dimethylpent-2-enenitrile]	+ (+indicates binding activity from 5% to 25%)
C=CC(=O)N1CCN(c2nc(NCCN(C)C)nc3c(F)c(-c4c(C)ccc5[nH]ncc45)c(Cl)cc23)CC1 [Compound I-253]	++++ (++++indicates binding activity greater than 75%)
C=CC(=O)N1CCN(c2nc(N(C)C)nc3c(F)c(-c4c(C)ccc5[nH]ncc45)c(Cl)cc23)CC1 [Compound 338, 1-(4-(6-chloro-2-(dimethylamino)-8-fluoro-7-(5-methyl-1H-indazol-4-yl)quinazolin-4-yl)piperazin-1-yl)prop-2-en-1-one]	++ (++indicates binding activity greater than 25% and up to 50%)
C=CC(=O)N1CCN(c2ncnc3c(F)c(-c4ccc(F)cc4F)c(C)cc23)CC1 [Compound I-292, 1-(4-(7-(2,4-difluorophenyl)-8-fluoro-6-methylquinazolin-4-yl)piperazin-1-yl)prop-2-en-1-one]	+ (+indicates binding activity from 5% to 25%)
C=CC(=O)N1CCN(c2c(C#N)cnc3cc(-c4c(O)ccc5ccccc45)c(Cl)cc23)CC1 [Compound I-260, 4-(4-acryloylpiperazin-1-yl)-6-chloro-7-(2-hydroxynaphthalen-1-yl)quinoline-3-carbonitrile]	++ (++indicates binding activity greater than 25% and up to 50%)
C=CC(=O)N1CCN(c2nc(OCCN(C)C)nc3c(F)c(-c4c(O)cccc4F)c(Cl)cc23)CC1 [Compound 341, 1-(4-(6-chloro-2-(2-(dimethylamino)ethoxy)-8-fluoro-7-(2-fluoro-6-hydroxyphenyl)quinazolin-4-yl)piperazin-1-yl)prop-2-en-1-one]	++++ (++++indicates binding activity greater than 75%)
N#C/C=C\C(=O)N1CCN(c2ncnc3cc(-c4ccc(F)cc4F)c(Cl)cc23)CC1 [Compound I-263, (Z)-4-(4-(6-chloro-7-(2,4-difluorophenyl)quinaozlin-4-yl)piperazin-1-yl)-4-oxobut-2-enenitrile]	+ (+indicates binding activity from 5% to 25%)
O=C(C#CCO)N1CCN(c2ncnc3cc(-c4ccc(F)cc4F)c(Cl)cc23)CC1 [Compound I-247, 1-(4-(6-chloro-7-(2,4-difluorophenyl)quinazolin-4-yl)piperazain-1-yl)-4-hydoxybut-2-yn-1-one]	+++ (+++indicates binding activity greater than 50% and up to 75%)

same assay, conditions: determined at 2 hrs

SMILES	Binding %
C=CC(=O)N1CCN(C(=O)c2cc(Cl)c(-c3ccccc3)cc2O)CC1 [III-42, 1-(4-(2-Chloro-5-hydroxy-[1,1′-biphenyl]-4-carbonyl)piperazin-1-yl)prop-2-en-1-one]	+ (+indicates binding activity from 5% to 20%)

same assay, conditions: determined at 24 hrs

SMILES	Binding %
C=CC(=O)N1CC(N2CCN(C(=O)Cc3c[nH]c4ccccc34)CC2)C1 [II-25, 1-(3-(4-(2-(1H-indol-3-yl)acetyl)piperazin-1-yl)azetidin-1-yl)prop-2-en-1-one]	+ (+indicates binding activity from 5% to 15%)
C=CC(=O)N1CCC(N2CCN(C(=O)CNc3cc(CC)c(Cl)cc3O)CC2)C1 (stereo not shown) [II-12, 1-(3-(4-(2-(4-chloro-5-ethyl-2-hydroxyphenylamino)-acetyl)piperazin-1-yl)pyrrolidin-1-yl)prop-2-en-1-one]	+++ (+++indicates binding activity greater than 25% and up to 50%)
C=CC(=O)N1CC(N2CCN(C(=O)C(C)Nc3cc(Cl)c(Cl)cc3O)CC2)C1 (stereo not shown) [II-31, 1-(3-(4-(2-(4,5-dichloro-2-hydroxyphenylamino)-propanoyl)-piperazin-1-yl)azetidin-1-yl)prop-2-en-1-one]	++++ (++++indicates binding activity greater than 50%)
C=CC(=O)N1CC(N2CCN(C(=O)CNc3cc(Cl)c(Cl)cc3C(N)=O)CC2)C1 [II-10, 2-(2-(4-(1-acryloylazetidin-3-yl)piperazin-1-yl)-2-oxoethylamino)-4,5-dichlorobenzamide]	+ (+indicates binding activity from 5% to 15%)
C=CC(=O)N1CC(N2CCN(C(=O)c3cc(-c4cc(Cl)ccc4Cl)c(Cl)cc3O)CC2)C1 [II-48, 1-(3-(4-(2′,5′,6-trichloro-4-hydroxybiphenyl-carbonyl)piperazin-1-yl)azetidin-1-yl)prop-2-en-1-one]	++ (++indicates binding activity greater than 15% and up to 25%)
